Source: patent publication US10683278B2 (JINAN UNIVERSITY, priority 2015, dated 2020)
Read-outs that look alike come from different tables or passages of the source.

Assays:
AXL kinase = target: T1, AXL kinase (Homo sapiens, UniProt P30530); experiment: IC50 test on AXL kinase (Z′-LYTE FRET kinase activity detection); type: biochemical; details: for IC50: Z′-LYTE FRET peptide assay, 1 h reaction; for inhibitory activity on AXL kinase: competitive experiment with ATP, in words
T1 construct: purchased Invitrogen PV4803
T1 sequence (P30530 26-894): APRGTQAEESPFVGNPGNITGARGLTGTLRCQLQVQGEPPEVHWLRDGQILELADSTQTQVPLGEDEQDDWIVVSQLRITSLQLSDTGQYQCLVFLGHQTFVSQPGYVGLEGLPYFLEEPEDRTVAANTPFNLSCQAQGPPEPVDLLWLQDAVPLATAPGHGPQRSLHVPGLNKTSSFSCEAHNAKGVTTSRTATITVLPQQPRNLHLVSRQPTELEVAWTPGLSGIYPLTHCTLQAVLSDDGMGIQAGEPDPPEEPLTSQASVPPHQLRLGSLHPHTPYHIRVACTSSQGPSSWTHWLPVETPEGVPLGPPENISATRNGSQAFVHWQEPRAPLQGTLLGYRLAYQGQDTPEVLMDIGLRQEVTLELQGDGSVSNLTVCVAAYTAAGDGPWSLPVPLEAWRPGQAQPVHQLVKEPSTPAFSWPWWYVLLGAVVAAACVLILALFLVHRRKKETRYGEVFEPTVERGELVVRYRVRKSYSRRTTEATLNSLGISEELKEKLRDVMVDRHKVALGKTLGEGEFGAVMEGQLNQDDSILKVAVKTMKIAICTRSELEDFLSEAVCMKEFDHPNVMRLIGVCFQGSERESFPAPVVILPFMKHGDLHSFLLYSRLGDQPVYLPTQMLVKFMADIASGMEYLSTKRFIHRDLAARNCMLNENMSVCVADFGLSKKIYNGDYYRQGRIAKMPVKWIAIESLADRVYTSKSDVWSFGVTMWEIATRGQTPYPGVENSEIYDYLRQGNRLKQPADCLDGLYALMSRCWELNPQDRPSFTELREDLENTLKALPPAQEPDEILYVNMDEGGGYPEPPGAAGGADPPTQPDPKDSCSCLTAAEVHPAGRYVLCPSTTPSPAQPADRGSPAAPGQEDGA
Summary of the method: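 Z′-LYTE FRET readout: after 1 h kinase reaction (AXL, Tyr 2 peptide, ATP, compound dilutions), a 1 h protease step cuts unphosphorylated substrate. Excitation at 400 nm, signals at 445 nm and 520 nm used to derive IC50.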

MV4-11 cells = experiment: Inhibition of proliferation of MV4-11 cells (CCK-8); type: cell-based; details: Homo sapiens, 72 h, mean±standard deviation of two independent tests
Description: (§1) 12000 g of compounds were centrifuged for 5 min, DMSO was added to make a 10^−2M stock solution, vortexed uniformly and sonicated for 10 min for standby application, and stored at −40° C. The compounds were diluted from the stock solution with saline to 10 times the concentration to be tested (concentration of DMSO in the system being no more than 0.5%) during the test.
(§2) The inhibitory effect of the compounds on the proliferation of MV4-11 cells was detected using a CCK-8 cell counting kit (Dojindo). The specific steps are as follows: the MV4-11 cells in logarithmic growth phase were seeded into a 96-well culture plate at a suitable density in 90 μL/well, cultured overnight, compounds at different concentrations were then added and acted on cells for 72 hr, and the solvent control group (negative control) was set up. The effect of the compounds on cell proliferation was detected using a CCK-8 cell counting kit (Dojindo) after the compounds had acted on the cells for 72 h. 10 μL of CCK-8 reagent was added to each well, same was placed in an incubator at 37° C. for 2-4 hours, and the reading from the full-wavelength microwell plate ELIASA SpectraMax 190 was performed with a wavelength of 450 nm.
(§3) IC50 value was calculated using a software included with ELIASA by the four-parameter regression.
(§4) IC50 for the inhibition of the compounds on each stain of cells was derived from two independent repeated tests, and the results are shown as the mean±standard deviation.

Molm-13 cells = experiment: Inhibition of proliferation of Molm-13 cells (CCK-8); type: cell-based; details: Homo sapiens, 72 h, mean±standard deviation of two independent tests
Description: [Worded in the source for another cell line; this cell line is reported under the same test.] as §1, §2, §3, §4

[1] = target: T2, FLT-3 kinase domain recombinant protein (Homo sapiens, UniProt P36888); experiment: Inhibition rate on FLT3 kinase (ELISA); type: biochemical; details: two values per compound; for inhibition at 0.01 µM / inhibition at 0.1 µM / inhibition at 1 µM: read-out: Inhibition rate (%) against receptor tyrosine kinase FLT-3
T2 construct: 50 μL FLT-3 kinase domain recombinant protein diluted with reaction buffer to initiate the reaction
T2 sequence (P36888 610-943 limits assumed): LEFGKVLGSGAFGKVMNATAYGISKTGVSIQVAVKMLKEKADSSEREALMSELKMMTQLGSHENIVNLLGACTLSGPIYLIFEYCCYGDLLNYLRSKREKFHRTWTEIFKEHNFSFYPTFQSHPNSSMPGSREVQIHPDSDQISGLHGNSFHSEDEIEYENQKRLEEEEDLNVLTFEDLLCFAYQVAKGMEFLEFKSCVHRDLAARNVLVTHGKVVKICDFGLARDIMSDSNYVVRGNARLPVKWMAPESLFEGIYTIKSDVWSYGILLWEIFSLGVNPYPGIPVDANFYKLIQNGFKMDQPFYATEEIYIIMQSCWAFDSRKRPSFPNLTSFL
Description: Conventional enzyme-linked immunosorbent assay (ELISA) method is used, and the specific steps are as follows
as §1, with “12,000 g” for “12000 g”, “with DMSO” for “with saline”, “to 100” for “to 10”, “being 1%)” for “being no more than 0.5%)”
1. The enzyme reaction substrate Poly (Glu, Tyr) 4:1 was diluted to 20 μg/mL with potassium-free PBS (10 mM sodium phosphate buffer, 150 mM NaCl, pH 7.2-7.4), the ELISA plate was coated with same in 125 μL/well, and reacted at 37° C. for 12-16 hours, the liquid in wells was discarded, the plate was washed three times, for 5 minutes each time, with T-PBS (potassium-free PBS with 0.1% Tween-20, 200 μL/well), and the ELISA plate was dried in an oven at 37° C. for 1-2 hours.
2. To each well were added 49 μL of ATP solution diluted with reaction buffer (50 mM HEPES pH 7.4, 50 mM MgCl2, 0.5 mM MnCl2, 0.2 mM Na3VO4, 1 mM DTT), 1 μL of compounds to be tested, and 50 μL FLT-3 kinase domain recombinant protein diluted with reaction buffer to initiate the reaction (two ATP-free control wells are required for each experiment). Subject to a shaker (100 rpm) at 37° C. and reacted for 1 hour. The liquid in wells was discarded, and the plate was washed three times with T-PBS.
(§5) 3. Antibody PY99 diluent (the antibody was diluted in 1:500 with T-PBS which contains 5 mg/mL BSA) was added in 100 μL/well, subjected same to a shaker at 37° C. and reacted for 0.5 hour. The liquid in wells was discarded, and the plate was washed three times with T-PBS.
as §5, with “4. Horseradish peroxidase labeled goat anti-mouse secondary antibody” for “3. Antibody PY99”, “1:2000” for “1:500”, “mg/ml” for “mg/mL”
5. 2 mg/ml of OPD developing solution (diluted with 0.1 M citric acid-sodium citrate buffer which contains 0.03% H2O2 (pH=5.4)) was added in 100 μL/well, and reacted at 25° C. in the dark for 1-10 minutes.
6. 2 M H2SO4 was added in 50 μL/well to stop the reaction, and the reading from the wavelength-adjustable microwell plate ELIASA VERSAmax was performed with a wavelength of 490 nm.

[2] = In vivo pharmacokinetic and bioavailability experiments of rats; design: species or system SD rats; details: for bioavailability / AUC(0-inf) / AUC(0-t) / half-life / Cmax / clearance: Sprague-Dawley, rat, plasma; for bioavailability: po, 25 mg/kg, read-out: F (oral bioavailability); for Cmax: read-out: Cmax
Description: Pharmacokinetic and bioavailability experiments of rats. SD rats were administered orally (25 mg/kg) and intravenously (2.5 to 5 mg/kg) at a single dose. Animal blood samples were taken at appropriate time points after administration, heparin was added as anticoagulant, and same were centrifuged at 8000 rpm/min for 6 minutes, the supernatant was then taken and stored at −20° C. for HPLC-MS analysis. The proteins in blood samples were precipitated with acetonitrile at 12000 rpm for 10 min, and the supernatant was used for HPCL-MS analysis. Data were fit using DAS2.0 to obtain compartmental model and non-compartmental model parameters, respectively. The oral bioavailability of each compound was calculated according to AUC data.

[3] = SD rats, Po, 25 mg/kg single dose
[4] = SD rats, iv, 5 mg/kg single dose

Row | IC50 (AXL kinase) [nM] | inhibitory activity on AXL kinase (AXL kinase) | IC50 (MV4-11 cells) [nM] | IC50 (Molm-13 cells) [nM] | Inhibition rate (%) against receptor tyrosine kinase FLT-3 ([1]; compound 10 nM, 0.01 µM) [%] | inhibition at 0.01 µM ([1]; compound 10 nM) [%] | Inhibition rate (%) against receptor tyrosine kinase FLT-3 ([1]; compound 100 nM, 0.1 µM) [%] | inhibition at 0.1 µM ([1]; compound 100 nM) [%] | Inhibition rate (%) against receptor tyrosine kinase FLT-3 ([1]; compound 1000 nM, 1 µM) [%] | inhibition at 1 µM ([1]; compound 1000 nM) [%] | bioavailability [2] [%] | AUC(0-inf) [2, 3] [ng·h/mL] | AUC(0-t) [2, 3] [ng·h/mL] | half-life [2, 3] [h] | Cmax [2, 3] [ng/mL] | AUC(0-inf) [2, 4] [ng·h/mL] | AUC(0-t) [2, 4] [ng·h/mL] | clearance [2, 4] [mL/min/kg] | half-life [2, 4] [h] | Cmax [2, 4] [ng/mL] | Structure (SMILES) | other results
1 | 9 | strong inhibitory activity | > 500 | > 300 | – | – | – | – | – | – | – | – | – | – | – | – | – | – | – | – | CCc1ccc2c(c1)c(=O)c(C(=O)Nc1ccc(Oc3ncnc4cc(OC)c(OC)cc34)c(F)c1)c(CC)n2C [TL4830074, N-(4-(6,7-dimethoxyquinazolin-4-yloxy)-3-fluorophenyl)-2,6-diethyl-1-methyl-4-oxo-1,4-dihydroquinoline-3-carboxamide] | –
2 | 58 | – | – | – | 49.8 | 44.7 | 57.4 | 66.4 | 80.9 | 87.6 | 7.92 | 12200 | 3800 | 35.5 | 219 | 13000 | 9600 | 6.5 | 12.7 | 1140 | COc1cc2ncnc(Oc3ccc(NC(=O)c4cn5c6c(c(N7CCN(C)CC7)c(F)cc6c4=O)OCN5C)cc3F)c2cc1OC [TL4830039, N-(4-((6,7-dimethoxyquinazolin-4-yl)oxy)-3-fluorophenyl)-9-fluoro-3-methyl-10-(4-methylpiperazin-1-yl)-7-oxo-2,3-dihydro-7H-[1,3,4] oxadiazino[6,5,4-ij]quinoline-6-carboxamide] | –

The remaining lines, values behind:

Row | Structure (SMILES) | IC50 (AXL kinase) [nM] | inhibitory activity on AXL kinase (AXL kinase) | IC50 (MV4-11 cells) [nM] | IC50 (Molm-13 cells) [nM] | Inhibition rate (%) against receptor tyrosine kinase FLT-3 ([1]; compound 10 nM, 0.01 µM) [%] | inhibition at 0.01 µM ([1]; compound 10 nM) [%] | Inhibition rate (%) against receptor tyrosine kinase FLT-3 ([1]; compound 100 nM, 0.1 µM) [%] | inhibition at 0.1 µM ([1]; compound 100 nM) [%] | Inhibition rate (%) against receptor tyrosine kinase FLT-3 ([1]; compound 1000 nM, 1 µM) [%] | inhibition at 1 µM ([1]; compound 1000 nM) [%] | bioavailability [2] [%] | AUC(0-inf) [2, 3] [ng·h/mL] | AUC(0-t) [2, 3] [ng·h/mL] | half-life [2, 3] [h] | Cmax [2, 3] [ng/mL] | AUC(0-inf) [2, 4] [ng·h/mL] | AUC(0-t) [2, 4] [ng·h/mL] | clearance [2, 4] [mL/min/kg] | half-life [2, 4] [h] | Cmax [2, 4] [ng/mL] | other results
3 | CCc1ccc2c(c1)c(=O)c(C(=O)Nc1ccc(Oc3ncnc4cc(OCCCOC)c(OC)cc34)c(F)c1)c(C)n2C [TL4830073, 6-ethyl-N-(3-fluoro-4-((6-methoxy-7-(3-methoxypropoxy)quinazolin-4-yl)oxy)phenyl)-1,2-dimethyl-4-oxo-1,4-dihydroquinoline-3-carboxamide] | 5 | strong inhibitory activity | – | 38.6 ± 18 | – | – | – | – | – | – | – | – | – | – | – | – | – | – | – | – | –
4 | CC(C)(C)c1cc(NC(=O)Nc2ccc(-c3cn4c(n3)sc3cc(OCCN5CCOCC5)ccc34)cc2)no1 [AC220, reference compound] | – | – | < 2 | 19.5 ± 2.7 | – | – | – | – | – | – | – | – | – | – | – | – | – | – | – | – | –
5 | CCc1ccc2c(c1)c(=O)c(C(=O)Nc1ccc(Oc3ncnc4cc(OCCN5CCCC5)c(OC)cc34)c(F)c1)c(C)n2C [TL4830058, 6-ethyl-N-(3-fluoro-4-((6-methoxy-7-(2-(pyrrolidin-1-yl)ethoxy)quinazolin-4-yl)oxy)phenyl)-1,2-dimethyl-4-oxo-1,4-dihydroquinoline-3-carboxamide] | 8 | – | – | – | 49.4 | 54.7 | 75.8 | 74 | 92.3 | 95.2 | 28 | 50300 | 39700 | 11 | 4090 | 28700 | 28400 | 3 | 4.05 | 13300 | pharmacokinetic parameter, overall judgement ([2]; SD rats, hydrochlorides, in words): appropriate pharmacokinetic parameter
